The record followed here is patent US20210115104A1, “AMYLIN ANALOGUES” (Zealand Pharma A/S, priority 2015, published 2021).

For series [1], the target named is T1, human calcitonin receptor (hCTR2) (Homo sapiens, UniProt P30988).
T1 construct: expressed in transfected cells
T1 sequence (P30988 25-474): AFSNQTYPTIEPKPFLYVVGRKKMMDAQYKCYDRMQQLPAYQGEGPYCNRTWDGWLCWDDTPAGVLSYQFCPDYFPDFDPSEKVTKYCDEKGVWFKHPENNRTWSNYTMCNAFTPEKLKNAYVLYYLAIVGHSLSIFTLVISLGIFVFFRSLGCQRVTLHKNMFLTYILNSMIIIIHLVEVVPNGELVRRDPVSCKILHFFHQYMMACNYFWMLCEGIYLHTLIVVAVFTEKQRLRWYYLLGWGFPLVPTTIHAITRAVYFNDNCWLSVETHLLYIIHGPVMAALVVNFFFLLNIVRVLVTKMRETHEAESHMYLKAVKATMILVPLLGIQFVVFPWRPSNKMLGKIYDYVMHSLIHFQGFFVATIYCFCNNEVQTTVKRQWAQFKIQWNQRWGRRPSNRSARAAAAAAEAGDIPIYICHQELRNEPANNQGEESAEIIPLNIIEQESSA
In words: hCTR2 cAMP assay (AlphaScreen) in COS7 cells. Format: cell-based. Particulars: cAMP induction, COS7 cells expressing hCTR2; Table 1; read-out: hCTR2 EC50. In outline: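 cAMP induction, read by AlphaScreen after lysis, gives EC50 values via 4PL curve fitting. Peptides were applied at rising concentrations for 15 min at 37 °C, with IBMX and 0.1% casein in HEPES-buffered Tyrode pH 7.4, to COS7 cells (no endogenous RAMPs) stably expressing human CTR2.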
(Cyclic AMP is a second messenger, typically raised through Gs and lowered through Gi signalling.)

Series [2] is described as follows: Assessment of solubility (turbidity absorbance at 325 nm). Particulars: named as exception to solubility ≥1 mg/ml. Type of series: physicochemical. The procedure:
A stock solution of the test peptide (2 mg/ml; determined from the weighed amount of peptide) in demineralized water adjusted to pH 2.5 with HCl was prepared, and aliquots were diluted 1:1 in 100 mM acetate buffer (pH 4.0 and pH 5.0), 100 mM histidine buffer (pH 6.0 and pH 7.0) and 100 mM phosphate buffer (pH 6.0, pH 7.0 and pH7.5), respectively, and loaded in a standard flat-bottom, non-sterile 96-well UV Microplate. The absorbance of samples (single samples, n=1) at 280 and 325 nm was measured in an absorbance-based plate reader, which was preheated to ambient temperature (typically 25° C.). The turbidity absorbance criterion for a peptide solubility of ≥1 mg/ml was an absorbance at 325 nm of s 0.02 absorbance units (which is 5 to 6 times the standard deviation of 8 buffer samples in a plate).

Series [3] is described as follows: Assessment of physical stability (Thioflavin T fibrillation). Format: physicochemical. Also on record: key: FND = fibrillation not detected; FD = fibrillation detected. The conditions noted are these: 1 mg/ml, 40° C., ThT. In outline: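 Fibrillation lag-time, in hours, taken where regressions of the initial stable phase and the growth phase intersect. ThT (40 μM) fluorescence monitored at 40 °C for 96 h, 10-min reads each preceded by 300 s mixing. Peptide at 1 mg/ml in 50 mM buffers: phosphate or histidine pH 7.0, acetate pH 4.0.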

A short description of series [4]: Assessment of chemical stability (RP-HPLC normalized purity). Type of series: physicochemical. The conditions noted are these: 7 days, 40° C., Table 1. A digest of the protocol: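 Purity after 7 days at 40° C is expressed relative to T=0 (set to 100) for each pH. Samples at 0.2 mg/ml, pH 4, 6, 7.5 or 9, analyzed by RP-HPLC with UV 220 nm on C8 (ammonium formate) or C18 (TFA) gradients.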

Series [5] has as its target T2, human amylin receptor 3 (hAMYR3), hCTR2 co-expressed with hRAMP3 (Homo sapiens, UniProt O60896+P30988).
T2 construct: expressed in transfected cells
T2 sequence (P30988 25-474): T1 sequence (P30988 25-474)
T2 sequence (O60896 24-148 partner): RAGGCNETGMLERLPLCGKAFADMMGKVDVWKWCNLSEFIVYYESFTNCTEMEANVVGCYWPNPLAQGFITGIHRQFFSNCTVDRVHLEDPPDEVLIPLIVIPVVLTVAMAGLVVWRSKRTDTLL
In words: hAMYR3 cAMP assay (AlphaScreen) in COS7 cells. Type of series: cell-based. Particulars: cAMP induction, COS7 cells expressing hAMYR3; Table 1; read-out: hAMYR3 EC50. A digest of the protocol: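 EC50 values derive from 4PL curve fits of cAMP (AlphaScreen) in lysates of RAMP-naive COS7 cells stably carrying hCTR2 plus hRAMP3. Peptide dilution series were applied for 15 min at 37 °C in pH 7.4 Tyrode buffer containing 100 µM IBMX and 0.1% casein.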

Setting [6] is: pH 6.0, read-out: solubility at pH 6.0.
The mark [7] stands for this setting: phosphate buffer, pH 7.5, read-out: solubility at pH 7.5.

Where two headings read alike, the source gives them in different places. *1 amine or outer side, *2 acyl side, *3 side chain or, on linkers, in order; H or OH if unused. Where a SMILES comes first, the peptide text is derived from it. Bridges are numbered along the chain shown (N, C = ends). [ ]: non-standard residue; d: D form. The star is where a group is joined. C20 diacid = O=C(O)CCCCCCCCCCCCCCCCCCC(=O)*; γGlu = O=C(O)[C@H](CCC(=O)[*:2])N[*:1]; Hyp = O=C(O)[C@@H]1C[C@@H](O)CN1; NMeI = CC[C@H](C)[C@H](NC)C(=O)O; Sar = CNCC(=O)O

For the compound `CC[C@H](C)[C@@H](C(=O)N[C@@H](CC(C)C)C(=O)N[C@@H](CO)C(=O)N[C@@H](CO)C(=O)N[C@H](C(=O)N[C@@H](CCC(=O)O)C(=O)N[C@H](C(=O)NCC(=O)N[C@@H](CO)C(=O)N[C@@H](Cc1ccccc1)C(=O)N[C@H](C(=O)N1C[C@H](O)C[C@H]1C(N)=O)[C@@H](C)O)C(C)C)[C@@H](C)O)N(C)C(=O)[C@H](C)NC(=O)CN(C)C(=O)[C@H](Cc1ccccc1)NC(=O)[C@H](CO)NC(=O)[C@H](CO)NC(=O)[C@H](CCCNC(=N)N)NC(=O)[C@@H](NC(=O)[C@H](CC(C)C)NC(=O)[C@H](Cc1ccccc1)NC(=O)[C@H](Cc1c[nH]cn1)NC(=O)[C@H](C)NC(=O)[C@H](CC(C)C)NC(=O)[C@H](CCCNC(=N)N)NC(=O)[C@H](CCC(=O)O)NC(=O)[C@@H](NC(=O)[C@H](C)NC(=O)[C@@H]1CSSC[C@H](NC(=O)[C@H](CCCNC(=N)N)NC(=O)CC[C@H](NC(=O)CCCCCCCCCCCCCCCCCCC(=O)O)C(=O)O)C(=O)NCC(=O)N[C@@H]([C@@H](C)O)C(=O)N[C@@H](C)C(=O)N[C@@H]([C@@H](C)O)C(=O)N1)[C@@H](C)O)[C@@H](C)O` [Compound 10, [19CD]-isoGlu-R-C( )-GTAT-C( )-ATERLAHFLTRSSF-Gly(Me)-A-Ile(Me)-LSSTEVGSFT-Hyp-NH2] ({C20 diacid-γGlu}-RCGTATCATERLAHFLTRSSF[Sar]A[NMeI]LSSTEVGSFT[Hyp]-NH2; disulfide 2-7), the EC50 in series [1] is 0.16 nM. Also, in series [2] (setting [6]), the solubility was < 1000 µg/mL. Also, the “Fibrillation pH 4.0 (Ac)” value in series [3] (50 mM acetate buffer pH 4.0, 96 hours) is “FND”. For the same compound, the “Fibrillation pH 7.0 (His)” value in series [3] (50 mM histidine buffer pH 7.0, 96 hours) is given as “FD”. Moreover, in series [3] (50 mM phosphate buffer pH 7.0, 96 hours), the “Fibrillation pH 7.0 (Phos.)” value is “FD”. In addition, the “Normalized purity after 7 days, 40° C., pH 4” value in series [4] (pH 4, 0.2 mg/ml) is on record as “A (A = >90%)”. For the same compound, in series [4] (pH 6, 0.2 mg/ml), the “Normalized purity after 7 days, 40° C., pH 6” value is listed as “A (A = >90%)”. The “Normalized purity after 7 days, 40° C., pH 7.5” value in series [4] (pH 7.5, 0.2 mg/ml) is “B (B = 70-90%)”. Further, the “Normalized purity after 7 days, 40° C., pH 9” value in series [4] (pH 9, 0.2 mg/ml) is listed as “B (B = 70-90%)”.
For `CC[C@H](C)[C@@H](C(=O)N[C@@H](CC(C)C)C(=O)N[C@@H](CO)C(=O)N[C@@H](CO)C(=O)N[C@H](C(=O)N[C@@H](CCC(=O)O)C(=O)N[C@H](C(=O)NCC(=O)N[C@@H](CO)C(=O)N[C@@H](CO)C(=O)N[C@H](C(=O)N1C[C@H](O)C[C@H]1C(N)=O)[C@@H](C)O)C(C)C)[C@@H](C)O)N(C)C(=O)[C@H](C)NC(=O)CN(C)C(=O)[C@H](Cc1ccccc1)NC(=O)[C@H](CO)NC(=O)[C@H](CO)NC(=O)[C@H](CCCNC(=N)N)NC(=O)[C@@H](NC(=O)[C@H](CC(C)C)NC(=O)[C@H](Cc1ccccc1)NC(=O)[C@H](Cc1c[nH]cn1)NC(=O)[C@H](C)NC(=O)[C@H](CC(C)C)NC(=O)[C@H](CCCNC(=N)N)NC(=O)[C@H](CCC(=O)O)NC(=O)[C@@H](NC(=O)[C@H](C)NC(=O)[C@@H]1CSSC[C@H](NC(=O)[C@H](CCCNC(=N)N)NC(=O)CC[C@H](NC(=O)CCCCCCCCCCCCCCCCCCC(=O)O)C(=O)O)C(=O)NCC(=O)N[C@@H]([C@@H](C)O)C(=O)N[C@@H](C)C(=O)N[C@@H]([C@@H](C)O)C(=O)N1)[C@@H](C)O)C(C)C` [Compound 31, [19CD]-isoGlu-R-C( )-GTAT-C( )-ATERLAHFLVRSSF-Gly(Me)-A-Ile(Me)-LSSTEVGSST-Hyp-NH2] ({C20 diacid-γGlu}-RCGTATCATERLAHFLVRSSF[Sar]A[NMeI]LSSTEVGSST[Hyp]-NH2; disulfide 2-7), the values for the EC50 in series [1] and in series [5] were 0.09 nM and 0.29 nM, respectively. Also, the solubility in series [2] (pH 7.0, read-out: solubility at pH 7.0) is < 1000 µg/mL; in series [2] (setting [7]), < 1000 µg/mL.
`CC[C@H](C)[C@@H](C(=O)N[C@@H](CC(C)C)C(=O)N[C@@H](CO)C(=O)N[C@@H](CO)C(=O)N[C@H](C(=O)N[C@@H](CCC(=O)O)C(=O)N[C@H](C(=O)NCC(=O)N[C@@H](CO)C(=O)N[C@@H](CO)C(=O)N[C@H](C(=O)N1CCC[C@H]1C(N)=O)[C@@H](C)O)C(C)C)[C@@H](C)O)N(C)C(=O)[C@H](C)NC(=O)CN(C)C(=O)[C@H](Cc1ccccc1)NC(=O)[C@H](CO)NC(=O)[C@H](CO)NC(=O)[C@H](CCCNC(=N)N)NC(=O)[C@@H](NC(=O)[C@H](CC(C)C)NC(=O)[C@H](Cc1ccccc1)NC(=O)[C@H](Cc1c[nH]cn1)NC(=O)[C@H](C)NC(=O)[C@H](CC(C)C)NC(=O)[C@H](CCCNC(=N)N)NC(=O)[C@H](CCC(=O)O)NC(=O)[C@@H](NC(=O)[C@H](C)NC(=O)[C@@H]1CSSC[C@H](NC(=O)[C@H](CCCNC(=N)N)NC(=O)CC[C@H](NC(=O)CCCCCCCCCCCCCCCCCCC(=O)O)C(=O)O)C(=O)NCC(=O)N[C@@H]([C@@H](C)O)C(=O)N[C@@H](C)C(=O)N[C@@H]([C@@H](C)O)C(=O)N1)[C@@H](C)O)C(C)C` [Compound 38, [19CD]-isoGlu-R-C( )-GTAT-C( )-ATERLAHFLVRSSF-Gly(Me)-A-Ile(Me)-LSSTEVGSSTP-NH2] ({C20 diacid-γGlu}-RCGTATCATERLAHFLVRSSF[Sar]A[NMeI]LSSTEVGSSTP-NH2; disulfide 2-7): the EC50 in series [1] was found to be 0.06 nM; in series [5], 0.12 nM. The solubility in series [2] (setting [6]) and in series [2] (setting [7]) was < 1000 µg/mL throughout.

Usually EC50 stands for the concentration that produces a half-maximal response. In general, solubility refers to how much of the substance goes into solution per volume.
